Reference: patent US20080021070A1, “PYRIDINE DERIVATIVES, PREPARATION AND THERAPEUTIC APPLICATION THEREOF” (SANOFI-AVENTIS, priority 2004, published 2008)

melting point [°C]	Compound
98	Cc1nc(-c2ccc(Cl)cc2)c(-c2ccc(Cl)cc2Cl)cc1CNS(=O)(=O)c1ccc(C(F)(F)F)cc1
135.5	Cc1nc(-c2ccc(Cl)cc2)c(-c2ccc(Cl)cc2Cl)cc1CNC(=O)c1cc2ccccc2[nH]1 [Compound 3, N-{[-6-(4-chlorophenyl)-5-(2,4-dichlorophenyl)-2-methylpyridin-3-yl]methyl}-1H-indole-2-carboxamide]
